The values that follow come from ChEMBL document CHEMBL4814027, “Synthesis and biological evaluation of naphthoquinone phenacylimidazolium derivatives” (Bioorg Med Chem Lett, 2021).

Structures are written as SMILES. Activity calls are given as the source filed them. The rule behind the calls is not given here.

For orientation: IC50 means the concentration that gives 50% inhibition. Higher therefore signals a need for much substance.

Series [1] has as its system MCF7. Briefly: Induction of cell cycle arrest in human MCF7 cells assessed as accumulation at G0/G1 phase at 0.1 uM after 48 hrs by flow cytometric analysis (reference value: 66.6 %). Type of series: functional.
Series [2] concerns MCF7. Briefly: Induction of cell cycle arrest in human MCF7 cells assessed as accumulation at G2/M phase at 0.02 uM after 48 hrs by flow cytometric analysis (reference value: 8.7 %). It counts as functional.
Series [3] can be described thus: Selectivity ratio of IC50 for mouse L929 cells to IC50 for human MCF7 cells. As to conditions: L929 cells versus MCF7 cells, read-out: Ratio IC50. It counts as toxicity.
Series [4] deals with MCF7. Briefly: Induction of apoptosis in human MCF7 cells assessed as late apoptotic cells at 0.1 uM after 48 hrs by Annexin V/PI staining based flow cytometric analysis (reference value: 1.23 %). It counts as functional. (In general: In flow cytometry, cells or beads pass a laser one at a time.)
Series [5] deals with MCF7. Briefly: Induction of apoptosis in human MCF7 cells assessed as inhibition of survivin protein expression at 0.02 to 0.2 uM by Western blotting analysis. It counts as functional, cell-based. Conditions: dose 0.02-0.2 µM. For orientation: In western blotting, separated proteins are transferred to a membrane and probed.
The subject of series [6] is MCF7. Briefly: Induction of cell cycle arrest in human MCF7 cells assessed as accumulation at G2/M phase at 0.1 uM after 48 hrs by flow cytometric analysis (reference value: 8.7 %). It counts as functional.
A further series relates to L929. Briefly: Cytotoxicity against mouse L929 cells by MTT assay.
Series [7] relates to MCF7. Briefly: Induction of cell cycle arrest in human MCF7 cells assessed as accumulation at G2/M phase at 0.2 uM after 48 hrs by flow cytometric analysis (reference value: 8.7 %). Type of series: functional.
Series [8] deals with MCF7. The series is described as follows: Induction of apoptosis in human MCF7 cells assessed as early apoptotic cells at 0.2 uM after 48 hrs by Annexin V/PI staining based flow cytometric analysis (reference value: 5.05 %). Type of series: functional.
In series [9] the test system is MCF7. Briefly: Induction of apoptosis in human MCF7 cells assessed as late apoptotic cells at 0.2 uM after 48 hrs by Annexin V/PI staining based flow cytometric analysis (reference value: 1.23 %). Type of series: functional.
In series [10] the test system is MCF7. Briefly: Induction of apoptosis in human MCF7 cells assessed as increase in cleaved caspase 3 protein expression at 0.02 uM by Western blotting analysis. It counts as functional, cell-based.
Series [11] has as its system MCF7. Briefly: Induction of apoptosis in human MCF7 cells assessed as viable cells at 0.2 uM after 48 hrs by Annexin V/PI staining based flow cytometric analysis (reference value: 93.7 %). As to conditions: read-out: Activity. Type of series: functional.
Series [12] concerns MCF7. The series is described as follows: Induction of apoptosis in human MCF7 cells assessed as viable cells at 0.02 uM after 48 hrs by Annexin V/PI staining based flow cytometric analysis (reference value: 93.7 %). It counts as functional. As to conditions: read-out: Activity.
Series [13] has as its system MCF7. The series is described as follows: Induction of apoptosis in human MCF7 cells assessed as necrotic cells at 0.02 uM after 48 hrs by Annexin V/PI staining based flow cytometric analysis (reference value: 0.017 %). It counts as functional.
The subject of series [14] is MCF7. Briefly: Cytotoxicity against human MCF7 cells by MTT assay. It counts as functional, cell-based. A general note: Formazan colour is commonly taken as a measure of viable cells.
The next series deals with A549. Briefly: Cytotoxicity against human A549 cells by MTT assay.
Series [15] can be described thus: Selectivity ratio of IC50 for mouse L929 cells to IC50 for human A549 cells. It counts as toxicity. Conditions: L929 cells versus A549 cells, read-out: Ratio IC50.
Series [16] has as its system MCF7. Briefly: Induction of apoptosis in human MCF7 cells assessed as necrotic cells at 0.1 uM after 48 hrs by Annexin V/PI staining based flow cytometric analysis (reference value: 0.017 %). Type of series: functional.
A short description of series [17]: Selectivity ratio of IC50 for mouse L929 cells to IC50 for human HeLa cells. It counts as toxicity. Conditions: L929 cells versus HeLa cells, read-out: Ratio IC50.
Series [18] relates to MCF7. The series is described as follows: Induction of cell cycle arrest in human MCF7 cells assessed as accumulation at S phase at 0.02 uM after 48 hrs by flow cytometric analysis (reference value: 24.4 %). Type of series: functional.
Series [19] concerns MCF7. The series is described as follows: Induction of cell cycle arrest in human MCF7 cells assessed as accumulation at G0/G1 phase at 0.02 uM after 48 hrs by flow cytometric analysis (reference value: 66.6 %). Type of series: functional.
Series [20] concerns MCF7. Briefly: Induction of apoptosis in human MCF7 cells assessed as viable cells at 0.1 uM after 48 hrs by Annexin V/PI staining based flow cytometric analysis (reference value: 93.7 %). It counts as functional. As to conditions: read-out: Activity.
In series [21] the test system is MCF7. The series is described as follows: Induction of apoptosis in human MCF7 cells assessed as early apoptotic cells at 0.1 uM after 48 hrs by Annexin V/PI staining based flow cytometric analysis (reference value: 5.05 %). Type of series: functional.
Series [22] deals with MCF7. The series is described as follows: Induction of cell cycle arrest in human MCF7 cells assessed as accumulation at S phase at 0.2 uM after 48 hrs by flow cytometric analysis (reference value: 24.4 %). It counts as functional.
Series [23] has as its system MCF7. The series is described as follows: Induction of cell cycle arrest in human MCF7 cells assessed as accumulation at S phase at 0.1 uM after 48 hrs by flow cytometric analysis (reference value: 24.4 %). Type of series: functional.
For series [24], the system named is MCF7. Briefly: Induction of cell cycle arrest in human MCF7 cells assessed as accumulation at G0/G1 phase at 0.2 uM after 48 hrs by flow cytometric analysis (reference value: 66.6 %). Type of series: functional.
Series [25] deals with MCF7. The series is described as follows: Induction of apoptosis in human MCF7 cells assessed as early apoptotic cells at 0.02 uM after 48 hrs by Annexin V/PI staining based flow cytometric analysis (reference value: 5.05 %). It counts as functional.
Series [26] concerns MCF7. Briefly: Induction of apoptosis in human MCF7 cells assessed as late apoptotic cells at 0.02 uM after 48 hrs by Annexin V/PI staining based flow cytometric analysis (reference value: 1.23 %). Type of series: functional.
For another series, the system named is HeLa. Briefly: Cytotoxicity against human HeLa cells by MTT assay. Type of series: functional, cell-based.
For series [27], the system named is MCF7. Briefly: Induction of apoptosis in human MCF7 cells assessed as necrotic cells at 0.2 uM after 48 hrs by Annexin V/PI staining based flow cytometric analysis (reference value: 0.017 %). Type of series: functional.

Turning to `CC(C)Cn1c[n+](CC(=O)c2cccs2)c2c1C(=O)c1ccccc1C2=O.[Br-]`, the Activity turned out to be 52.5% in the series with MCF7 [1]; 13.1% in the series with MCF7 [2]; 4.44% with MCF7 [4]; 11.4% in the series on MCF7 [6]; 10% with MCF7 [7]; 83.4% in the series on MCF7 [8]. The Activity in the series on MCF7 [9] came to 7.77%; in the series with MCF7 [13] it was 0.33%; in the series with MCF7 [16], 0.42%; with MCF7 [18] it was 30.1%; with MCF7 [19], 56.6%; in the series on MCF7 [21], 69.2%. Besides, the Activity in the series on MCF7 [22] was determined as 43.7%; with MCF7 [23], 35.6%; with MCF7 [24], 46.2%; with MCF7 [25], 46%; in the series on MCF7 [26] it was 6.12%; in the series with MCF7 [27] it was 0.98%. Moreover, the selectivity ratio in series [3] came to 256; in series [15], 61; in series [17], 21.3. In addition, the result with MCF7 [5] and in the series with MCF7 [10] was Active. Also, the IC50 with L929 stood at 12800 nM; in the series with MCF7 [14] it was 50 nM; in the series on A549 it was 210 nM; in the series on HeLa, 600 nM. For the same compound, in the series with MCF7 [11], the viability at 0.2 µM is 7.84%. Besides, the viability at 0.02 µM in the series with MCF7 [12] was 47.6%. Moreover, in the series on MCF7 [20], the viability at 0.1 µM stood at 26%.

Take `Cc1ccc(C(=O)C[n+]2cn(C)c3c2C(=O)c2ccccc2C3=O)cc1`: the selectivity ratio was found to be 24.5 in series [3], 91.9 in [15] and 4.2 in series [17]. Also, the IC50 in the series on L929 is 14700 nM; in the series on MCF7 [14] it was 600 nM; with A549 it was 160 nM; in the series on HeLa, 3500 nM.
